Reference: patent US20250177533A1, “PHOTODYNAMIC THERAPY AND DIAGNOSIS” (RMW CHO Group Limited, priority 2021, published 2025)
Where two headings read alike, the source gives them in different places.

Experiments:
[1] = test system: Human ovarian cancer cell line SKOV3; experiment: Phototoxicity in SKOV3 cells (660 nm laser or LED, AlamarBlue viability); format: cell-based; conditions: Homo sapiens, SK-OV-3, light or radiation study, SKOV3, 24 h uptake, viability 24 h later
Description: All data are shown as mean±SD (where appropriate).
Media was then replaced with fresh media containing AlamarBlue, and % viable cells remaining assessed as above. […] All measurements were made in quadruplicate.

[2] = test system: Human ovarian cancer cell line SKOV3; conditions: 24 h
Description: Serial dilutions were prepared in cell culture media (Dulbecco's Modified Eagle Medium/Nutrient Mixture F-12 (DMEM/F-12)) supplemented with 10% v/v Fetal Bovine Serum, 100 U/mL penicillin, 100 μg/mL streptomycin and the same excipient solution at a constant 1:55 dilution.
Human ovarian cancer cell line SKOV3 (ATCC #HTB-77) was maintained in Dulbecco's Modified Eagle Medium/Nutrient Mixture F-12 (DMEM/F-12), supplemented with 10% v/v Fetal Bovine Serum, 100 U/mL penicillin and 100 μg/mL streptomycin. Monolayer cultures were grown in a humidified incubator at 37° C. with 5% CO2. Once cells had reached ˜80% confluence, spent media was replaced with media containing photosensitizer at the required concentration and cells were incubated for the desired period of time to allow photosensitizer uptake.
Spectral absorbance and viability measurements were normalized in the range 0-100%, with a minimum of 0 and a maximum value determined from the dataset. Dose response was determined using a sigmoidal four-point non-linear regression with variable slope, and IC10 or IC90 calculated for each compound. All data are shown as mean±SD (where appropriate).
On reaching ˜60% confluence, media was aspirated and replaced with fresh media containing the relevant phyllochlorin analogue from 0-100 μM in DMSO.
Untreated cells were used as a control. […] All measurements were made in quadruplicate.
The phototoxicity and inherent cytotoxicity (i.e. “dark toxicity”) of phyllochlorin analogues were assessed as previously using SKOV3 ovarian cancer cells. For comparative purposes, phyllochlorin analogues were compared against chlorin e4 disodium and Talaporfin sodium, a clinically approved photosensitizer used in the photodynamic treatment of lung cancers.

[3] = 660 nm laser 50 mW/cm^2 for 5 mins (15 J/cm^2), read-out: Phototoxicity μM (IC90)

Row | Structure (SMILES) | IC90 [1, 3] | Dark toxicity μM (IC10) [2] | IC90 ([1]; 660 nm LED panel 50 mW/cm^2 for 5 mins (15 J/cm^2), read-out: Phototoxicity μM (IC90), measured by LED)
1 | CCC1=C(C)c2cc3[nH]c(cc4nc(c(C)c5cc(C)c(cc1n2)[nH]5)[C@@H](CCC(=O)N(C)CCCO)[C@@H]4C)c(C)c3C(C)OCCCS[C@@H]1O[C@H](CO)[C@@H](O)[C@H](O)[C@H]1O (stereo partly drawn) [Compound 2, phyllochlorin N-3-hydroxypropyl-N-methyl propylamide propyloxythio-D-glucose] | 0.03 µM | 7.640 µM | 
2 | CCC1=C(C)c2cc3[nH]c(cc4nc(c(C)c5cc(C)c(cc1n2)[nH]5)[C@@H](CCC(=O)OC)[C@@H]4C)c(C)c3CO [Compound 3, phyllochlorin 13-hydroxymethyl methyl ester] | 0.308 µM | 45.720 µM | 
3 | CCC1=C(C)c2cc3[nH]c(cc4nc(c(C)c5cc(C)c(cc1n2)[nH]5)[C@@H](CCC(=O)OC)[C@@H]4C)c(C)c3CO[C@@H]1O[C@H](CO)[C@@H](O)[C@H](O)[C@H]1O [Compound 4, phyllochlorin 13-hydroxymethyl-β-D-glucoside ether methyl ester] | 0.099 µM | 0.775 µM | 
4 | CCC1=C(C)c2cc3[nH]c(cc4nc(c(C)c5cc(C)c(cc1n2)[nH]5)[C@@H](CCC(=O)N(C)CCCO)[C@@H]4C)c(C)c3CO[C@@H]1O[C@H](CO)[C@@H](O)[C@H](O)[C@H]1O [Compound 6, phyllochlorin N-3-hydroxypropyl-N-methyl-propylamide 13-hydroxymethyl-β-D-glucoside ether] | 0.084 µM | 0.528 µM | 
5 | CCC1=C(C)c2cc3[nH]c(cc4nc(c(C)c5cc(C)c(cc1n2)[nH]5)[C@@H](CCC(=O)OC)[C@@H]4C)c(C)c3CO[C@@H]1O[C@H](CO)[C@@H](O[C@H]2O[C@H](CO)[C@@H](O)[C@H](O)[C@H]2O)[C@H](O)[C@H]1O [Compound 8, phyllochlorin 13-hydroxymethyl-β-D-maltose ether methyl ester] | 0.665 µM | 7.442 µM | 
6 | CCC1=C(C)c2cc3[nH]c(cc4nc(c(C)c5cc(C)c(cc1n2)[nH]5)[C@@H](CCC(=O)N(C)C[C@H](O)[C@@H](O)[C@H](O)[C@H](O)CO)[C@@H]4C)c(C)c3CO[C@@H]1O[C@H](CO)[C@@H](O)[C@H](O)[C@H]1O [Compound 10, phyllochlorin N-meglumine-propylamide-13-hydroxymethyl-β-D-glucoside ether] | 1.5 µM | 4.732 µM | 
7 | CCC1=C(C)c2cc3[nH]c(cc4nc(c(C)c5cc(C)c(cc1n2)[nH]5)[C@@H](CCC(=O)N(C)CCCO[C@@H]1O[C@H](CO)[C@@H](O)[C@H](O)[C@H]1O)[C@@H]4C)c(C)c3CO[C@@H]1O[C@H](CO)[C@@H](O)[C@H](O)[C@H]1O [Compound 12, phyllochlorin 13-hydroxymethyl-β-D-glucoside ether-β-D-glucosyl-N-methylpropylamide] | 0.353 µM | 2.466 µM | 
8 | CCC1=C(C)c2cc3[nH]c(cc4nc(c(C)c5cc(C)c(cc1n2)[nH]5)[C@@H](CCC(=O)N(CCOCCOCCOC)CCOCCOCCOC)[C@@H]4C)c(C)c3CO [Compound 13, phyllochlorin 13-hydroxymethyl-N,N-bis-PEG3OMe propylamide] | 0.421 µM | 60.750 µM | 
9 | CCC1=C(C)c2cc3[nH]c(cc4nc(c(C)c5cc(C)c(cc1n2)[nH]5)[C@@H](CCC(=O)N(CCOCCOCCOC)CCOCCOCCOC)[C@@H]4C)c(C)c3CO[C@@H]1O[C@H](CO)[C@@H](O)[C@H](O)[C@H]1O [Compound 14, phyllochlorin 13-hydroxymethyl-β-D-glucoside ether-N,N-bis-PEG3OMe propylamide] | 0.186 µM | 0.626 µM | 
10 | CCC1=C(C)c2cc3[nH]c(cc4nc(c(C)c5cc(C)c(cc1n2)[nH]5)[C@@H](CCC(=O)NCCOCCO[C@@H]1O[C@H](CO)[C@@H](O)[C@H](O)[C@H]1O)[C@@H]4C)c(C)c3CO[C@@H]1O[C@H](CO)[C@@H](O)[C@H](O)[C@H]1O [Compound 16, phyllochlorin 13-hydroxymethyl-β-D-glucoside ether-β-D-1-glucose-2-ethoxy-N-ethanamine] | 1.82 µM | 5.929 µM | 
11 | CCC1=C(C)c2cc3[nH]c(cc4nc(c(C)c5cc(C)c(cc1n2)[nH]5)[C@@H](CCC(=O)O)[C@@H]4C)c(C)c3CO [Compound 17, phyllochlorin 13-hydroxymethyl] | 0.891 µM | 25.000 µM | 
12 | CCC1=C(C)c2cc3[nH]c(cc4nc(c(C)c5cc(C)c(cc1n2)[nH]5)[C@@H](CCC(=O)N(C)CCCOCCC[P+](c1ccccc1)(c1ccccc1)c1ccccc1)[C@@H]4C)c(C)c3CO [Compound 18] | 0.007 µM | 4.393 µM | 
13 | CCC1=C(C)c2cc3[nH]c(cc4nc(c(C)c5cc(C)c(cc1n2)[nH]5)[C@@H](CCC(=O)N(C)CCCOCCC[P+](c1ccccc1)(c1ccccc1)c1ccccc1)[C@@H]4C)c(C)c3CO[C@@H]1O[C@H](CO)[C@@H](O)[C@H](O)[C@H]1O [Compound 19] | 0.018 µM | 0.090 µM | 
14 | CCC1=C(C)c2cc3[nH]c(cc4nc(c(C)c5cc(C)c(cc1n2)[nH]5)[C@@H](CCC(=O)OC)[C@@H]4C)c(C)c3C(C)OCCC[n+]1ccccc1 (stereo partly shown) [Compound 20, phyllochlorin methyl ester 3-pyridinium bromide propyl ether] | 0.003 µM | 1.998 µM | 
15 | CCC1=C(C)c2cc3[nH]c(cc4nc(c(C)c5cc(C)c(cc1n2)[nH]5)[C@@H](CCC(=O)OC)[C@@H]4C)c(C)c3C(C)OCCOCC[n+]1ccccc1 (stereo partly shown) [Compound 22, phyllochlorin methyl ester 2-(2-pyridiniumethoxy)ethyl ether chloride] | 0.004 µM | 2.228 µM | 
16 | CCC1=C(C)c2cc3[nH]c(cc4nc(c(C)c5cc(C)c(cc1n2)[nH]5)[C@@H](CCC(=O)OC)[C@@H]4C)c(C)c3C(C)OCCOCC[P+](c1ccccc1)(c1ccccc1)c1ccccc1 (stereo partly shown) [Compound 23, phyllochlorin methyl ester 2-(2-triphenylphosphoniumethoxy)ethyl ether chloride] | 0.012 µM | 3.086 µM | 
17 | CCC1=C(C)c2cc3[nH]c(cc4nc(c(C)c5cc(C)c(cc1n2)[nH]5)[C@@H](CCC(=O)N(C)CCOCCOCCOCCOCCOCCOC)[C@@H]4C)c(C)c3CO [Compound 24, phyllochlorin 13-hydroxymethyl N-methyl-N-3,6,9,12,15,18-hexaoxanonadecyl propylamide] | 0.503 µM | 41.190 µM | 
18 | CCC1=C(C)c2cc3[nH]c(cc4nc(c(C)c5cc(C)c(cc1n2)[nH]5)[C@@H](CCC(=O)N(C)CCOCCOCCOCCOCCOCCOC)[C@@H]4C)c(C)c3CO[C@@H]1O[C@H](CO)[C@@H](O)[C@H](O)[C@H]1O [Compound 25, phyllochlorin 13-hydroxymethyl-β-D-glucoside ether-β-D-glucosel-N-methyl-N-3,6,9,12,15,18-hexaoxanonadecyl propylamide] | 0.146 µM | 0.279 µM | 
19 | CCC1=C(C)c2cc3[nH]c(cc4nc(c(C)c5cc(C)c(cc1n2)[nH]5)[C@@H](CCC(=O)N(C)CCCS[C@@H]1O[C@H](CO)[C@@H](O)[C@H](O)[C@H]1O)[C@@H]4C)c(C)c3C(C)O (stereo partly drawn) [Compound 26, 13-hydroxyethylphyllochlorin-β-D-1-thioglucose-N-methylpropylamide] | 0.248 µM | 21.550 µM | 
20 | CCC1=C(C)c2cc3[nH]c(cc4nc(c(C)c5cc(C)c(cc1n2)[nH]5)[C@@H](CCC(=O)O)[C@@H]4C)c(C)c3C(C)O (stereo partly shown) [Compound 27, phyllochlorin 13-(ethyl-1-alcohol)] | 0.397 µM | 10.520 µM | 
21 | CCC1=C(C)c2cc3[nH]c(cc4nc(c(C)c5cc(C)c(cc1n2)[nH]5)[C@@H](CCC(=O)OC)[C@@H]4C)c(C)c3C(C)OCCC[n+]1ccc(C)cc1 (stereo partly shown) [Compound 28] | 0.003 µM | 4.877 µM | 
22 | CCC1=C(C)c2cc3[nH]c(cc4nc(c(C)c5cc(C)c(cc1n2)[nH]5)[C@@H](CCC(=O)OC)[C@@H]4C)c(C)c3COC(=O)NCCOC [Compound 29, phyllochlorin methyl ester 13-(2-methoxyethyl)carbamate] |  | 30.000 µM | 0.0867 µM
23 | CCC1=C(C)c2cc3[nH]c(cc4nc(c(C)c5cc(C)c(cc1n2)[nH]5)[C@@H](CCC(=O)OC)[C@@H]4C)c(C)c3C=O [Compound 30, phyllochlorin 13-formyl methyl ester] | 2.27 µM | 45.760 µM | 
24 | CCC1=C(C)c2cc3[nH]c(cc4nc(c(C)c5cc(C)c(cc1n2)[nH]5)[C@@H](CCCO)[C@@H]4C)c(C)c3CO [Compound 32, phyllochlorin 13-hydroxymethyl-3-hydroxypropyl] | 0.0724 µM | 30.850 µM | 
25 | CCC1=C(C)c2cc3[nH]c(cc4nc(c(C)c5cc(C)c(cc1n2)[nH]5)[C@@H](CCCO[C@@H]1O[C@H](CO)[C@@H](O)[C@H](O)[C@H]1O)[C@@H]4C)c(C)c3CO[C@@H]1O[C@H](CO)[C@@H](O)[C@H](O)[C@H]1O [Compound 33, phyllochlorin 13-hydroxymethyl-3-hydroxypropyl-bis-β-D-glucoside ether] | 0.765 µM | 14.080 µM | 
26 | CCC1=C(C)c2cc3[nH]c(cc4nc(c(C)c5cc(C)c(cc1n2)[nH]5)[C@@H](CCCO)[C@@H]4C)c(C)c3CO[C@@H]1O[C@H](CO)[C@@H](O)[C@H](O)[C@H]1O [Compound 35, phyllochlorin 3-hydroxypropyl-13-hydroxymethyl-β-D-glucoside ether] | 0.0467 µM | 1.651 µM | 
